From ChEMBL document CHEMBL5104135, “Potent and selective TYK2-JH1 inhibitors highly efficacious in rodent model of psoriasis” (Bioorg Med Chem Lett, 2022)
Converted amounts (≈) assume the structure as drawn.

What was measured:
Homo sapiens [1] = species on record: Homo sapiens; experiment: Ratio Ki for inhibition of JAK1 (unknown origin) over TYK2 JH1 domain (unknown origin)
Homo sapiens [2] = species on record: Homo sapiens; experiment: Ratio Ki for inhibition of JAK2 (unknown origin) over TYK2 JH1 domain (unknown origin)
Homo sapiens [3] = species on record: Homo sapiens; experiment: Ratio Ki for inhibition of JAK3 (unknown origin) over TYK2 JH1 domain (unknown origin)
[4] = Efflux ratio of apparent permeability in human Caco-2 cells
[5] = Kinetic solubility of compound at pH 7.4; details: buffer

O=C1NCc2nc(-c3c(F)cccc3F)cc(Nc3ccc(C(=O)N4CCCC4)cn3)c21
Ratio Ki (Homo sapiens [1]): 53 | Ratio Ki (Homo sapiens [2]): 23 | Ratio Ki (Homo sapiens [3]): 3.3

CCNC(=O)C(C)(O)c1ccc(Nc2nc(-c3c(F)cccc3F)nc3c2C(=O)NC3)cc1 (stereo in doubt; 13a) [listing 1 of 2 here]
efflux ratio [4]: 32

O=C1NCc2nc(-c3c(F)cccc3F)cc(Nc3ccc(N4CCC(O)CC4)cn3)c21
Ratio Ki (Homo sapiens [1]): 160 | Ratio Ki (Homo sapiens [2]): 120 | Ratio Ki (Homo sapiens [3]): 25 | solubility kinetic [5]: 65 µM (≈ 28.4 µg/mL) | efflux ratio [4]: 1.5

CCNC(=O)c1ccc(Nc2cc(-c3c(F)cccc3Cl)nc3c2C(=O)NC3)nc1
Ratio Ki (Homo sapiens [1]): 7.3 | Ratio Ki (Homo sapiens [2]): 12 | Ratio Ki (Homo sapiens [3]): 1.8

CC(C)c1nc(Nc2ccc(C(=O)O)cc2)c2c(=O)[nH]ccc2n1
Ratio Ki (Homo sapiens [1]): 5.3 | Ratio Ki (Homo sapiens [2]): 2.5 | Ratio Ki (Homo sapiens [3]): 1.3

CCNC(=O)c1ccc(Nc2cc(-c3c(F)cccc3C#N)nc3c2C(=O)NC3)nc1
Ratio Ki (Homo sapiens [1]): 6.5 | Ratio Ki (Homo sapiens [2]): 15 | Ratio Ki (Homo sapiens [3]): 69

N#Cc1cccc(F)c1-c1cc(Nc2ccc(N3CCOCC3)cn2)c2c(n1)CNC2=O
Ratio Ki (Homo sapiens [1]): 27 | Ratio Ki (Homo sapiens [2]): 26 | Ratio Ki (Homo sapiens [3]): 170

NC(=O)c1cnc(-c2c(F)cccc2F)nc1Nc1ccc(CC(=O)O)cc1
Ratio Ki (Homo sapiens [1]): 7.8 | Ratio Ki (Homo sapiens [2]): 74 | Ratio Ki (Homo sapiens [3]): 95

O=C1NCc2nc(-c3c(F)cccc3F)cc(Nc3ccc(C(=O)N4CCOCC4)cn3)c21
Ratio Ki (Homo sapiens [1]): 16 | Ratio Ki (Homo sapiens [2]): 18 | Ratio Ki (Homo sapiens [3]): 2.3

NC(=O)c1ccc(NC(=O)c2ccc[nH]c2=O)cc1
Ratio Ki (Homo sapiens [1]): 1.4 | Ratio Ki (Homo sapiens [2]): 1.1 | Ratio Ki (Homo sapiens [3]): 2.3

CCNC(=O)C(C)(O)c1ccc(Nc2nc(-c3c(F)cccc3F)nc3c2C(=O)NC3)cc1 (stereo in doubt; 13b)
Ratio Ki (Homo sapiens [1]): 27 | Ratio Ki (Homo sapiens [2]): 123 | Ratio Ki (Homo sapiens [3]): 13

O=C1NCc2nc(-c3c(F)cccc3F)nc(Nc3ccc(C4CCNC4=O)cc3)c21 (stereo in doubt; 14b)
Ratio Ki (Homo sapiens [1]): 55 | Ratio Ki (Homo sapiens [2]): 96 | Ratio Ki (Homo sapiens [3]): 15

O=C1NCc2nc(-c3c(F)cccc3F)nc(Nc3ccc(C4CCCNC4=O)cc3)c21 (stereo in doubt; 15a)
Ratio Ki (Homo sapiens [1]): 77 | Ratio Ki (Homo sapiens [2]): 83 | Ratio Ki (Homo sapiens [3]): 19

CN1CCN(C(=O)Cc2ccc(Nc3nc(-c4c(F)cccc4F)nc4c3C(=O)NC4)cc2)CC1
Ratio Ki (Homo sapiens [1]): 89 | Ratio Ki (Homo sapiens [2]): 52 | Ratio Ki (Homo sapiens [3]): 10

O=C1NCc2nc(-c3c(F)cccc3F)nc(Nc3ccc(CC(=O)N4CCN(CC(F)F)CC4)cc3)c21
Ratio Ki (Homo sapiens [1]): 31 | Ratio Ki (Homo sapiens [2]): 24 | Ratio Ki (Homo sapiens [3]): 2.3

COc1ccc(Nc2nc(-c3c(F)cccc3F)nc3c2C(=O)NC3)cc1
Ratio Ki (Homo sapiens [1]): 25 | Ratio Ki (Homo sapiens [2]): 240 | Ratio Ki (Homo sapiens [3]): 11

O=C1NCc2nc(-c3c(F)cccc3F)nc(Nc3ccc(CC(=O)N4CCOCC4)cc3)c21
Ratio Ki (Homo sapiens [1]): 59 | Ratio Ki (Homo sapiens [2]): 47 | Ratio Ki (Homo sapiens [3]): 8.8

CCNC(=O)C(C)(O)c1ccc(Nc2nc(-c3c(F)cccc3F)nc3c2C(=O)NC3)cc1 (stereo in doubt; 13a) [listing 2 of 2 here]
Ratio Ki (Homo sapiens [1]): 87 | Ratio Ki (Homo sapiens [2]): 300 | Ratio Ki (Homo sapiens [3]): 43

O=C1NCc2nc(-c3c(F)cccc3F)nc(Nc3ccc(C4CCNC4=O)cc3)c21 (stereo in doubt; 14a)
Ratio Ki (Homo sapiens [1]): 37 | Ratio Ki (Homo sapiens [2]): 35 | Ratio Ki (Homo sapiens [3]): 4

O=C1NCc2nc(-c3c(F)cccc3F)cc(Nc3ccc(N4CCC(F)(F)CC4)cn3)c21
Ratio Ki (Homo sapiens [1]): 400 | Ratio Ki (Homo sapiens [2]): 370 | Ratio Ki (Homo sapiens [3]): 32 | solubility kinetic [5]: 2.4 µM (≈ 1.1 µg/mL) | efflux ratio [4]: 0.68

O=C1NCc2nc(-c3c(F)cccc3F)nc(Nc3ccc(C4CCCNC4=O)cc3)c21 (stereo in doubt; 15b)
Ratio Ki (Homo sapiens [1]): 130 | Ratio Ki (Homo sapiens [2]): 84 | Ratio Ki (Homo sapiens [3]): 10

O=C1NCc2nc(-c3c(F)cccc3F)cc(Nc3ccc(N4CCOCC4)cn3)c21
Ratio Ki (Homo sapiens [1]): 160 | Ratio Ki (Homo sapiens [2]): 120 | Ratio Ki (Homo sapiens [3]): 25 | solubility kinetic [5]: 12 µM (≈ 5.08 µg/mL) | efflux ratio [4]: 0.58

O=C1NCc2nc(-c3c(F)cccc3F)cc(Nc3ccc(C(=O)N4CC[C@H](O)C4)cc3)c21
Ratio Ki (Homo sapiens [1]): 110 | Ratio Ki (Homo sapiens [2]): 110 | Ratio Ki (Homo sapiens [3]): 14 | solubility kinetic [5]: 290 µM (≈ 131 µg/mL) | efflux ratio [4]: 60
